Each structure is given as a SMILES string.

The assay deals with HIV protease (Human immunodeficiency virus type 1 group M subtype B, UniProt P04585). Nature of the assay: Enzymatic (FRET fluorometric) assay for determining the inhibition constant (Ki) of compounds targeting the HIV protease. Format: biochemical. The settings on record: FRET substrate (EDANS/DABCYL), equation of Henderson; read-out: Ki. The source says: Enzymatic Assay for Determining the Inhibition Constant (Ki) of Synthetic Compounds Targeting the HIV Protease
This is a fluorometric assay based on the cleavage by protease of a substrate carrying a donor group (EDANS) and an acceptor group (DABCYL) on each side of the cleavage site, interacting together through fluorescence resonance energy transfer (FRET) as described by Matayoshi et al. (Science 247:[…], 1990).
After calculation of Vo and Vi, the inhibition constant (Ki) of the compound is determined using the equation of Henderson: [formula]
where Vo=the enzyme's initial velocity
Vi=the enzyme velocity in the presence of the inhibitory compound,
[I]=inhibitor concentration, [S]=substrate concentration,
Km=Michaelis-Menten constant and Kiapp=apparent Ki
Graphs are traced and the Ki determined using GraphPad Prism software v. 3.0.
The Ki is the dissociation constant of the complex between target and ligand, obtained from inhibition or displacement. Regarding `Cc1ccc(S(=O)(=O)N(CC(C)C)[C@@H](CCCCNC(=O)N(Cc2ccccc2)Cc2ccccc2[N+](=O)[O-])C(=O)O)cc1` [Example 54, Nα-Isobutyl-Nα-(4-methylbenzenesulfonyl)-Nε-[N′-benzyl-N′-(2-nitrobenzyl)aminocarbonyl]-L-lysine], the Ki was found to be 0.9 nM. As to `CC(C)CCN([C@H](CO)CCCCNC(=O)N(Cc1ccc(C(F)(F)F)cc1)Cc1ccc2c(c1)OCO2)S(=O)(=O)c1ccc(N)cc1` [Example 94, (2S) 2-N-(4-Aminobenzenesulfonyl)-2-N-(3-methylbutyl)-6-N-[N′-(4-trifluoromethylbenzyl)-N′-piperonylaminocarbonyl]-2,6-diaminohexanol], the Ki was determined as 3 nM. Next, `Cc1ccc(S(=O)(=O)N(CC(C)C)[C@@H](CCCCNC(=O)NCCc2ccccc2)C(=O)O)cc1` [Example 21, Nα-Isobutyl-Nα-(4-methylbenzenesulfonyl)-Nε-(phenethylaminocarbonyl)-L-lysine]: 167 nM; `CC(C)CN([C@H](CO)CCCCNC(=O)N(Cc1ccc2c(c1)OCO2)Cc1cccs1)S(=O)(=O)c1ccc(N)cc1` [Example 75, (2S) 2-N-(4-Aminobenzenesulfonyl)-2-N-isobutyl-6-N-[N′-(2-thiophenemethyl)-N′-piperonylaminocarbonyl]-2,6-diaminohexanol]: 2 nM; `CC(C)CN([C@@H](CCCCNC(=O)N(Cc1ccccc1)Cc1ccncc1)C(=O)O)S(=O)(=O)c1ccc(N)cc1` [Example 48, Nα-(4-Aminobenzenesulfonyl)-Nα-isobutyl-Nε-[N′-benzyl-N′-(4-picolyl)aminocarbonyl]-L-lysine]: 12 nM. As for `COc1ccc(CN(Cc2ccncc2)C(=O)NCCCC[C@@H](C(=O)O)N(CC(C)C)S(=O)(=O)c2ccc(C)cc2)cc1` [Example 43, Nα-Isobutyl-Nα-(4-methylbenzenesulfonyl)-Nε-[N′-(4-methoxybenzyl)-N′-(4-picolyl)aminocarbonyl]-L-lysine], the Ki was 7.9 nM. `Cc1ccc(S(=O)(=O)N(CC(C)C)[C@@H](CCCCNC(=S)N(Cc2ccccc2)Cc2ccccc2)C(=O)O)cc1` [Example 37, Nα-Isobutyl-Nα-(4-methylbenzenesulfonyl)-Nε-(N′,N′-dibenzylaminothiocarbonyl)-L-lysine]: the Ki is 12 nM.

Take `Cc1ccc(S(=O)(=O)N(CC(C)C)[C@@H](CCCCNC(=O)N(Cc2ccccc2)Cc2ccc([N+](=O)[O-])cc2)C(=O)O)cc1` [Example 56, Nα-Isobutyl-Nα-(4-methylbenzenesulfonyl)-Nε-[N′-benzyl-N′-(4-nitrobenzyl)aminocarbonyl]-L-lysine]: the Ki was found to be 1.5 nM. Next, `Cc1ccc(S(=O)(=O)N(CC(C)C)[C@@H](CCCCNC(=O)N(Cc2ccccc2)Cc2ccncc2)C(=O)O)cc1` [Example 38, Nα-Isobutyl-Nα-(4-methylbenzenesulfonyl)-Nε-[N′-benzyl-N′-(4-picolyl)aminocarbonyl]-L-lysine]: 3.7 nM. Next, `Cc1ccc(S(=O)(=O)N(CC(C)C)[C@@H](CCCCNC(=NC#N)NCc2ccccc2)C(=O)O)cc1` [Example 28, Nα-Isobutyl-Nα-(4-methylbenzenesulfonyl)-Nε-(benzylaminocarbonyl-N-cyanoamidine)-L-lysine]: 63 nM.

For `COc1ccc(CN(Cc2ccncc2)C(=O)NCCCC[C@@H](CO)N(CC(C)C)S(=O)(=O)c2ccc(C)cc2)cc1` [Example 45, (2S) 2-N-Isobutyl-2-N-(4-methylbenzenesulfonyl)-6-N-[N′-(4-methoxybenzyl)-N′-(4-picolyl)aminocarbonyl]-2,6-diaminohexanol], the Ki came to 54 nM. Turning to `Cc1ccc(S(=O)(=O)N(CC(C)C)[C@@H](CCCCNC(=O)NCc2ccccc2)C(=O)O)cc1` [Example 2, Nα-Isobutyl-Nα-(4-methylbenzenesulfonyl)-Nε-(benzylaminocarbonyl)-L-lysine], the Ki turned out to be 32 nM. Next, `CC(C)CN([C@H](CO)CCCCNC(=O)N(Cc1ccsc1)Cc1ccc2c(c1)OCO2)S(=O)(=O)c1ccc(N)cc1` [Example 81, (2S) 2-N-(4-Aminobenzenesulfonyl)-2-N-isobutyl-6-N-[N′-(3-thiophenemethyl)-N′-piperonylaminocarbonyl]-2,6-diaminohexanol]: 6.3 nM; `COc1ccc(CN(Cc2ccc3c(c2)OCO3)C(=O)NCCCC[C@@H](CO)N(CC(C)C)S(=O)(=O)c2ccc(N)cc2)cc1` [Example 83, (2S) 2-N-(4-Aminobenzenesulfonyl)-2-N-isobutyl-6-N-[N′-(4-methoxybenzyl)-N′-piperonylaminocarbonyl]-2,6-diaminohexanol]: 2.2 nM; `CC(C)CN([C@H](CO)CCCCNC(=O)N(Cc1ccccc1)Cc1ccc(F)cc1)S(=O)(=O)c1ccc(N)cc1` [Example 68, (2S) 2-N-(4-Aminobenzenesulfonyl)-2-N-isobutyl-6-N-[N′-benzyl-N′-(4-fluorobenzyl)aminocarbonyl]-2,6-diaminohexanol]: 3.3 nM. For `CC(C)CN([C@H](CO)CCCCNC(=O)N(Cc1ccc(F)cc1)C1CCCCC1)S(=O)(=O)c1ccc(N)cc1` [Example 66, (2S) 2-N-(4-Aminobenzenesulfonyl)-2-N-isobutyl-6-N-[N′-cyclohexyl-N′-(4-fluorobenzyl)aminocarbonyl]-2,6-diaminohexanol] the value was 175 nM; for `Cc1ccc(S(=O)(=O)N(CC(C)C)[C@@H](CCCCNC(=O)N(Cc2ccccc2)Cc2cccc([N+](=O)[O-])c2)C(=O)O)cc1` [Example 55, Nα-Isobutyl-Nα-(4-methylbenzenesulfonyl)-Nε-[N′-benzyl-N′-(3-nitrobenzyl)aminocarbonyl]-L-lysine], 1.1 nM; for `CC(C)CN([C@H](CO)CCCCNC(=O)N(Cc1ccccc1)Cc1ccccc1)S(=O)(=O)c1ccc(N)cc1` [Example 41, (2S) 2-N-(4-Aminobenzenesulfonyl)-2-N-isobutyl-6-N-(N′,N′-dibenzylaminocarbonyl)-2,6-diaminohexanol], 12 nM. For `Cc1ccc(S(=O)(=O)N(CC(C)C)[C@@H](CCCCNC(=O)N(Cc2ccccc2)Cc2cccnc2)C(=O)O)cc1` [Example 42, Nα-Isobutyl-Nα-(4-methylbenzenesulfonyl)-Nε-[N′-benzyl-N′-(3-picolyl)aminocarbonyl]-L-lysine] the value was 3.7 nM. As for `Cc1ccc(S(=O)(=O)N(CC(C)C)[C@@H](CCCCNC(=S)NCc2ccccc2)C(=O)O)cc1` [Example 16, Nα-Isobutyl-Nα-(4-methylbenzenesulfonyl)-Nε-benzylaminothiocarbonyl-L-lysine], the Ki came out at 152 nM. With `CC(C)CN([C@H](CO)CCCCNC(=O)N(Cc1ccc(F)cc1)Cc1cccnc1)S(=O)(=O)c1ccc(N)cc1` [Example 70, (2S) 2-N-(4-Aminobenzenesulfonyl)-2-N-isobutyl-6-N-[N′-(4-fluorobenzyl)-N′-(3-picolyl)aminocarbonyl]-2,6-diaminohexanol], the Ki stood at 30 nM. For `Cc1ccc(S(=O)(=O)N(CC(C)C)[C@H](CO)CCCCNC(=O)N(Cc2ccccc2)Cc2ccccc2)cc1` [Example 33, (2S) 2-N-Isobutyl-2-N-(4-methylbenzenesullonyl)-6-N-(N′,N′-dibenzylaminocarbonyl)-2,6-diaminohexanol] the value was 17 nM. Next, `CC(C)CN([C@@H](CCCCNC(=O)N(Cc1ccccc1)Cc1cccnc1)C(=O)O)S(=O)(=O)c1ccc(N)cc1` [Example 47, Nα-(4-Aminobenzenesulfonyl)-Nα-isobutyl-Nε-[N′-benzyl-N′-(3-picolyl)aminocarbonyl]-L-lysine]: 2.4 nM; `CC(C)CN([C@H](CO)CCCCNC(=O)N(Cc1cccc(F)c1)C1CCCCC1)S(=O)(=O)c1ccc(N)cc1` [Example 71, (2S) 2-N-(4-Aminobenzenesulfonyl)-2-N-isobutyl-6-N-[N′-cyclohexyl-N′-(3-fluorobenzyl)aminocarbonyl]-2,6-diaminohexanol]: 235 nM; `Cc1ccc(S(=O)(=O)N(CC(C)C)[C@@H](CCCCNC(=S)NCCc2c[nH]c3ccccc23)C(=O)O)cc1` [Example 15]: 111 nM. Next, `Cc1ccc(S(=O)(=O)N(CC(C)C)[C@@H](CCCCNC(=O)N(Cc2ccccc2)Cc2ccccc2)C(=O)O)cc1` [Example 32, Nα-Isobutyl-Nα-(4-methylbenzenesulfonyl)-Nε-(N′,N′-dibenzylaminocarbonyl)-L-lysine]: 7.2 nM; `CC(C)CN([C@@H](CCCCNC(=O)N(Cc1ccccc1)Cc1ccccc1)C(=O)O)S(=O)(=O)c1ccc(N)cc1` [Example 36, Nα-(4-Aminobenzenesulfonyl)-Nα-isobutyl-Nε-(N′,N′-dibenzylaminocarbonyl)-L-lysine]: 1.8 nM; `CC(C)CN([C@H](CO)CCCCNC(=O)N(Cc1ccccc1)Cc1ccncc1)S(=O)(=O)c1ccc(N)cc1` [Example 52, (2S) 2-N-(4-Aminobenzenesulfonyl)-2-N-isobutyl-6-N-[N′-benzyl-N′-(4-picolyl)aminocarbonyl]-2,6-diaminohexanol]: 90 nM. Regarding `CC(C)CN([C@H](CO)CCCCNC(=O)N[C@@H](Cc1c[nH]c2ccccc12)C(=O)O)S(=O)(=O)c1ccc(N)cc1` [Example 65, (2S,2′S) 2-N-(4-Aminobenzenesulfonyl)-2-N-isobutyl-6-N-(S-tryptophanyl-N′-carbonyl)-2,6-diaminohexanol], the Ki was above 300 nM. Regarding `CC(C)CCN([C@H](CO)CCCCNC(=O)N(Cc1ccc([N+](=O)[O-])cc1)Cc1ccc2c(c1)OCO2)S(=O)(=O)c1ccc(N)cc1` [Example 89, (2S) 2-N-(4-Aminobenzenesulfonyl)-2-N-(3-methylbutyl)-6-N-[N′-(4-nitrobenzyl)-N′-piperonylaminocarbonyl]-2,6-diaminohexanol], the inhibition constant (Ki) was found to be 2.2 nM.

The values are drawn from US6528532B1, “Urea derivatives as HIV aspartyl protease inhibitors” (Pharmacor Inc., priority 2002, dated 2003).
